Measured values published in patent US7951819B2, “Imidazo[4, 5-B]pyridin-2-one and oxazolo[4, 5-B] pyridin-2-one compounds and analogs thereof as cancer therapeutic compounds” (Cancer Research Technology Limited, priority 2006, dated 2011).

Experiments:
[1] = test system: ppERK; assay: Phospho-ERK Cell-based Assay; details: cells incubated with test compound for 6 hours
Method: Compounds were assessed using cell-based assays which were performed according to the following protocol.
Plate out 16,000 cells/well in 99 μL medium in a 96-well plate.
2. Incubate the cells with test compound for 6 hours at 37° C.
5. Add 50 μL of 3 μg/mL primary antibody ppERK (Sigma M8159), diluted in 5% milk powder/TBS, to each well.
13. Read Europium Time Resolved Fluorescence in Victor2.
Note that Europium counts are normalised for protein levels by dividing counts by absorbance.

[2] = target: T1, V600E B-RAF (Homo sapiens, UniProt P15056, V600E); assay: BRAF V600E Kinase Assay; assay type: biochemical
T1 construct: MDRGSH6 (MDRGS-His6) (N); made in house; host or cells: SF9 insect cells (detergent soluble extract / lysate, not purified)
Method: B-raf kinase activity is measured using a 4-tiered cascade enzyme assay similar to that described by Marais R., et al., 1997, J. Biol. Chem., Vol. 272, pp. 4378-4383. B-Raf containing the V600E mutation (Davies, H., et al., 2002, Nature, Vol. 417, pp. 949-954) and an N-terminal MDRGSH6 tag is expressed in SF9 insect cells. Detergent soluble extracts from these cells are diluted 1:100 into an assay mixture containing GST-MEK-H6 (6.5 μg/ml) and GST-ERK-H6 (100 μg/ml) in a buffer containing 800 μM ATP and appropriate concentrations of inhibitor or diluent as control. The mixture is incubated for up to 10 minutes at 30° C. to activate the ERK in a B-Raf dependent manner within the cascade. […] The extent of activation of the GST-ERK is then determined by adding a portion of this quenched reaction mixture to a further reaction mixture containing MBP and 100 μM ATP/gamma [^32P]ATP. After 12 minutes' incubation at 30° C., the incorporation of [^32P] into the MBP substrate, as a measure of B-raf activity, is determined by precipitation with phosphoric acid and isolation by filtration on p81 phosphocellulose paper. […]
Alternatively, B-raf kinase activity is measured using a different 4-tiered cascade enzyme assay. […] The extent of activation of the GST-ERK is then determined by adding 0.033 μL (100 μM) HOT ^32Pα. […]
Compounds were assessed by a kinase assay performed according to the following protocol. […]

[3] = test system: WM266.4 melanoma cells; assay: Cell proliferation (SRB) assay; assay type: cell-based; details: Homo sapiens, WM 266-4, 144 h, 6 days growth
Method: Cultures of WM266.4 melanoma cells are routinely cultured in DMEM/10% foetal bovine serum, at 37° C., in 5% CO2 water saturated atmosphere. Cultures are maintained in exponential growth phase by sub-culturing before having become confluent (3-5 day intervals). Single cell suspensions are prepared by harvesting an 80 cm^2 tissue culture flask with 5 mL commercial trypsin EDTA. After 5 minutes, the detached cells are mixed with 5 mL fully complemented culture medium and centrifugally pelleted (1000 rpm for 7 minutes). After aspirating the supernatant, the cell pellet is re-suspended in 10 mL fresh medium and the cells fully disaggregated by drawing the whole volume up/down 5 times through a 19-gauge needle. The concentration of the cells is determined using a haemocytometer (1/10 dilution). A suitable volume to give at least a 2-fold excess for the number of tests being conducted, typically 100-200 mL, is prepared by diluting the cell suspension to 10,000/mL, and 100 μL/well dispensed into 96 well plates using a programmable 8-channel peristaltic pump, giving 1000 cells/well, leaving column 12 blank. […] The absorbance at 540 nm in each well (being proportional to the number of cells present) is determined using a plate reader. After averaging the results in rows A-D and E-H, the blank value ([…]) is subtracted, and results expressed as percentage of the untreated value (row 11). […]

T1 sequence (P15056 whole entry V600E): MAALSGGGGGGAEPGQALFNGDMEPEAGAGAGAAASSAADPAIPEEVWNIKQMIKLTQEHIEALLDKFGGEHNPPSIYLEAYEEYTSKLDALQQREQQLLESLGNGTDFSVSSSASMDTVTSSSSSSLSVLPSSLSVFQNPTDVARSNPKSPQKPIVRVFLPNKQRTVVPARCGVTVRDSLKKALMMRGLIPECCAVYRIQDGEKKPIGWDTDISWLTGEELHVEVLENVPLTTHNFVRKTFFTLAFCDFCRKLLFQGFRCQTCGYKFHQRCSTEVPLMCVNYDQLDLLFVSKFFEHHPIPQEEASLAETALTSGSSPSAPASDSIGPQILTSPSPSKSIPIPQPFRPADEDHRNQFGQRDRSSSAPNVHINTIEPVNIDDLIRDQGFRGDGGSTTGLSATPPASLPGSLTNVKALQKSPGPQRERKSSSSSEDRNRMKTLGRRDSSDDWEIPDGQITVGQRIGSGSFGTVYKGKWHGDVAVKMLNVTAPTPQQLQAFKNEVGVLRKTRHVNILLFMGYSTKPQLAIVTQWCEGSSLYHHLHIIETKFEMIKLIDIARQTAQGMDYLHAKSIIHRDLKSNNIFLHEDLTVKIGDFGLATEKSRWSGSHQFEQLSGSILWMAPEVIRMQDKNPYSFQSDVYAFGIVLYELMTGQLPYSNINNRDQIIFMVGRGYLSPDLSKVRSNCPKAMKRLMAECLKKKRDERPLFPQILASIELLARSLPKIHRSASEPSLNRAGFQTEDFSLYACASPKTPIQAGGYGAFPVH

IC50 [1]: 10.7 µM | IC50 [2]: 0.015 µM | IC50 [3]: 4.2 µM
SMILES: O=C(Nc1cccc(Oc2ccnc3[nH]c(=O)[nH]c23)c1)Nc1ccc(Cl)c(C(F)(F)F)c1 [CJS 3678, 1-(4-Chloro-3-(trifluoromethyl)phenyl)-3-(3-(2-oxo-2,3-dihydro-1H-imidazo[4,5-b]pyridin-7-yloxy)phenyl)urea]
